The assay deals with Angiotensin-converting enzyme (ACE1). The experiment in a line: Concentration required for 50% inhibition of Angiotensin I converting enzyme.
Compound `CC(=O)SCC1CCCN(CC(=O)O)C1=O` (configuration not stated) [(3-Acetylsulfanylmethyl-2-oxo-piperidin-1-yl)-acetic acid] displayed an IC50 of 100 µM. As for `O=C(O)CN1CCC(CS)C1=O` (configuration not stated) [(3-Mercaptomethyl-2-oxo-pyrrolidin-1-yl)-acetic acid], the IC50 stood at 3.7 µM. In the case of `CCCC(C(=O)O)N1CCCC(CSC(C)=O)C1=O` (configuration not stated) [2-(3-Acetylsulfanylmethyl-2-oxo-piperidin-1-yl)-pentanoic acid], the IC50 was found to be 30 µM. In the case of `O=C(O)CN1CCCC(CS)C1=O` (configuration not stated) [(3-Mercaptomethyl-2-oxo-piperidin-1-yl)-acetic acid], the IC50 was determined as 1 µM. `CC(=O)SCC1CCCN(C(C)C(=O)O)C1=O` (configuration not stated) [2-(3-Acetylsulfanylmethyl-2-oxo-piperidin-1-yl)-propionic acid] returned an IC50 of 35 µM. Compound `CC(=O)SCC1CCCN(C(C(=O)O)c2ccccc2)C1=O` (configuration not stated) [(3-Acetylsulfanylmethyl-2-oxo-piperidin-1-yl)-phenyl-acetic acid] showed an IC50 of 19 µM. Turning to `CC(=O)SCC1CCN(CC(=O)O)C1=O` (configuration not stated) [(3-Acetylsulfanylmethyl-2-oxo-pyrrolidin-1-yl)-acetic acid], half-maximal inhibition (IC50) was put at 33 µM.

One may read the IC50 as the concentration at which inhibition is half-maximal. A low value points to higher potency.

These data come from BindingDB's records for doi:10.1021/jm00133a021 (1981).
